From patent US11241396B2 (Gateway Health Alliances, Inc., priority 2015, dated 2022)
Entries after “also recorded” stand apart in the source; their conditions may differ. Read-outs that look alike come from different tables or passages of the source.

Assays:
platelets [1] = settings: 4 mg/kg/day; cited from earlier work
humans [2] = settings: cited from earlier work
animal = settings: 500 mg/kg, bw/day for 3 months dosing; cited from earlier work
humans [3] = settings: cited from earlier work; remark: listed apart in the source
[4] = system: human umbilical vein endothelial cells; settings: 1 μM; cited from earlier work
cyclooxygenase (COX) = settings: in vitro studies; cited from earlier work
platelets [5] = settings: 10 mg daily for three months; cited from earlier work
postmenopausal women = test: Microvascular function by peripheral arterial tonometry (Endo-PAT2000), randomized double-blind crossover trial; assay type: in vivo, human; settings: combined data; univariate ANOVA with Bonferroni post hoc
platelets [6] = settings: 10-1,000 μM in vitro; cited from earlier work
[7] = Plasma resveratrol concentrations (HPLC) after capsule intake; assay type: in vivo, human; settings: 90 mg, median (interquartile range), n=30
Method: The study included two separate investigations: a one hour study and a two hour study (FIG. 1). […] The two hour study was designed to fully assess and compare the responses to trans-res and ResArgin™.
Participants were randomized by block design to consumed trans-res or ResArgin™ in random order. Randomization was performed by the study coordinator following a predetermined plan formulated via a web-based random number generator. […] The study included two separate investigations: a one hour study and a two hour study (FIG. 6). During each study visit, which took place after an overnight fast, a baseline measurement of PAT and a blood sample were collected, followed by consumption of the assigned treatment. During the one hour study, PAT measurements and blood samples were collected thirty and sixty minutes after the capsules were consumed. During the two hour study, a PAT measurement and blood sample were taken two hours after the capsules were consumed.
Briefly, plasma was treated with acidified methanol [0.5% (v/v) of acetic acid in methanol; precooled to −20° C.] containing an appropriate recovery standard. The mixture was stored at −80 C for 12 hours to allow for cryo-assisted protein precipitation, and then centrifuged for 15 min at 16,500×g. […]

platelets [8] = test: Platelet function by whole blood/optical lumi-aggregometer after capsule intake; assay type: in vivo, human
Method: Platelet reactivity during clinical screening was assessed by a PFA-100 (Siemens, Deerfield, Ill.), which measures platelet function by simulating arterial hemostasis under blood flow shear stress. During the intervention, platelet function was assessed by a whole blood/optical lumi-aggregometer (Chrono-log Model 700, Havertown, Pa.). Briefly, platelet aggregation was measured via electrical impedence (or electrical resistance), whereas lumi-aggregometry was used to examine aggregation together with adenosine triphosphate (hereafter, “ATP”) release, which is determined with firefly luciferin-luciferase system. […] One of the following agonists was used to stimulate platelets: collagen (1 μL and 5 μL), AA (10 μL) or ADP (10 μL). ATP release was measured only when platelets were activated with ADP. The aggregation was measured over a period of six minutes, following the addition of an agonist.

[9] = 10 mg per day for three months, stable coronary artery disease patients
[10] = 1 μL collagen, one hour post consumption vs baseline
[11] = 10 μL arachidonic acid, one hour after intake vs baseline

Oc1ccc(C=Cc2cc(O)cc(O)c2)cc1 [Resveratrol, 3,5,4′-trihydroxystilbene]
ADP-induced platelet aggregation (platelets [1]): inhibited | FMD (humans [2]; [9]): enhanced FMD response | FMD (humans [2]; 75 mg daily for six weeks): enhanced FMD response | Toxicity in animal studies (animal): no toxicity effect | Plasminogen activator inhibitor type 1 (PAI-1) (humans [3]; 8 mg daily for six months, then 16 mg per day for six months): significant decrease | Total cholesterol (humans [3]; 250 mg for three months): decrease | Low density lipoprotein (LDL) cholesterol (humans [3]; daily intake of 8 mg for six months): Reduction

Oc1ccc(/C=C/c2cc(O)cc(O)c2)cc1 [trans-res, Trans-resveratrol]
Expression of eNOS [4]: up-regulated | Cyclooxygenase (COX) activity (cyclooxygenase (COX)): can inhibit | Platelet aggregation (platelets [5]): significantly reduced | FMD (humans [2]; [9]): significant improvement in FMD | FMD (humans [2]; 75 mg daily for six weeks): significant increase in FMD | FMD (humans [2]; 75 mg, one hour post-consumption): significant increase in FMD | FMD (humans [2]; single dose of 30, 90 and 270 mg, one hour after consumption): increase in FMD | FRHI one and two hours post-consumption compared to baseline (significance) (postmenopausal women): No differences were observed; also recorded: no changes were noted | RHI one hour after intake compared to baseline (significance) (postmenopausal women): not observed | Platelet aggregation (platelets [6]): significantly reduced aggregation in a dose dependent fashion | Plasma resveratrol concentration ([7]; 30 minutes after intake): 2.04 (0.82, 2.54) | Plasma resveratrol concentration ([7]; 60 minutes after intake): 2.65 (1.69, 3.44) | Lag time of platelet aggregation (platelets [8]; [10]): significant increase | Slope of platelet aggregation (platelets [8]; [10]): not for the trans-res group | Platelet function changes (platelets [8]; 5 μL collagen, one hour post consumption vs baseline): no significant changes | Slope, lumi-aggregometry (platelets [8]; 10 μL ADP, one hour post consumption vs baseline): significant decrease | Area under the curve (AUC) of aggregation (platelets [8]; [11]): no changes were noted | Maximum aggregation (platelets [8]; [11]): no changes were noted
